In ChEMBL document CHEMBL3045009, “Synthesis and Biological Activity of the Functional Derivatives of 3- and 4-(Dimethyl-aminomethyl)-1,2-dithiolanes” (1992):

Tests used:
Type in all cases: functional
Nilaparvata lugens = test: Insecticidal activity against Nilaparvata lugens (brown planthopper) assessed as mortality at 50 ppm; details: for mortality at 50 ppm: Nilaparvata lugens
Tetranychus urticae = test: Acaricidal activity against Tetranychus urticae (two-spotted spider mite) assessed as mortality at 500 ppm; details: for mortality at 500 ppm: Tetranychus urticae
Chilo suppressalis [1] = test: Insecticidal activity against Chilo suppressalis (rice stem borer) assessed as mortality at 50 ug/g administered as topical application
Spodoptera litura = test: Insecticidal activity against Spodoptera litura assessed as mortality at 500 ppm; details: for mortality at 500 ppm: Spodoptera litura
Culex pipiens molestus = test: Insecticidal activity against Culex pipiens molestus assessed as mortality at 5 ppm; details: for mortality at 5 ppm: Culex pipiens
Chilo suppressalis [2] = test: Insecticidal activity against Chilo suppressalis (rice stem borer) assessed as mortality compound administered as topical application

| Compound | mortality at 50 ppm (Nilaparvata lugens) [%] | mortality at 500 ppm (Tetranychus urticae) [%] | mortality (Chilo suppressalis [1]) [%] | mortality at 500 ppm (Spodoptera litura) [%] | mortality at 5 ppm (Culex pipiens molestus) [%] | LD50 (Chilo suppressalis [2]) [mg/kg] | mortality (Nilaparvata lugens) [%] | mortality (Tetranychus urticae) [%] | mortality (Spodoptera litura) [%] | mortality (Culex pipiens molestus) [%] |
| --- | --- | --- | --- | --- | --- | --- | --- | --- | --- | --- |
| CC(C)NC(=O)SCCC(CN(C)C)SC(=O)NC(C)C (stereo not given) | 45 | 50 | 100 | 0 | 65 | 24.5 |  |  |  |  |
| CNC(=S)SCCC(CN(C)C)SC(=S)NC (stereo not given) | 70 | 80 | 100 | 10 | 70 | 15.8 |  |  |  |  |
| CC(=O)SCC(CSC(C)=O)CN(C)C.O=C(O)C(=O)O | 100 | 100 | 100 | 70 | 100 | 32.5 |  |  |  |  |
| CN(C)CC(CSC(=O)c1ccccc1)CSC(=O)c1ccccc1 | 100 | 100 | 100 | 10 | 100 | 4 |  |  |  |  |
| CCC(=O)SCC(CSC(=O)CC)CN(C)C |  |  | 100 |  |  | 7.6 | 70 | 100 | 40 | 100 |
| CCC(=O)SCC(CSC(=O)CC)CN(C)C.O=C(O)C(=O)O | 70 | 100 | 100 |  |  | 6.6 |  |  | 0 | 75 |
| CN(C)CC(CSC(N)=O)CSC(N)=O.Cl.O | 100 | 80 | 100 | 100 | 100 | 12.6 |  |  |  |  |
| CNC(=O)SCC(CSC(=O)NC)CN(C)C | 30 | 90 | 100 | 20 | 100 | 27.1 |  |  |  |  |
| CC(C)NC(=O)SCC(CSC(=O)NC(C)C)CN(C)C.O=C(O)C(=O)O |  |  | 100 | 0 | 100 | 30.5 | 0 | 90 |  |  |
| CC(C)NC(=S)SCC(CSC(=S)NC(C)C)CN(C)C | 100 | 80 | 100 | 50 | 100 | 12.7 |  |  |  |  |
| CN(C)CC1CCS[S+]1[O-].O=C(O)C(=O)O (stereo not given) | 100 | 100 | 100 | 0 | 100 | 7.5 |  |  |  |  |
| CN(C)C[C@@H]1CCSC(C#N)(c2ccc(Cl)cc2)S1.O=C(O)C(=O)O (mixture of isomers) | 90 | 100 | 100 | 0 | 90 | 20.7 |  |  |  |  |
| CN(C)C(CSC(N)=O)CSC(N)=O.Cl [CARTAP HYDROCHLORIDE] | 100 | 37 | 100 | 35 | 100 | 2.3 |  |  |  |  |
| CN(C)C1CSSC1.O=C(O)C(=O)O [NEREISTOXIN HYDROGEN OXALATE] | 100 | 50 | 100 | 30 | 100 | 1.7 |  |  |  |  |
| CN(C)C1CS[S+]([O-])C1.O=C(O)C(=O)O (stereo not given) [NEREISTOXIN MONOXIDE HYDROGEN OXALATE] | 100 | 60 | 100 | 30 | 50 | 5.8 |  |  |  |  |
